Experimental data as given in patent US4362746A (priority 1981, dated 1982).
Counter-ions that a name gives are not always drawn. Like-named read-outs stand apart in the source and are kept apart here.

Experiments:
in vitro = settings: human, g-2 cells
[1] = test system: Influenza A/Swine/1976/31; test: microbe, parasite or virus in culture; type: cell-based; settings: in Sus scrofa
Influenza A2 /Aichi/2/68 = test: In vitro anti-myxovirus assay, inhibition of hemadsorption, Influenza A2/Aichi/2/68 in G-2 cells; type: cell-based; settings: for inhibition at 50 µg/mL: 50 ug/ml; for inhibition at 60 µg/mL: 60 ug/ml; for inhibition at 70 µg/mL: 70 ug/ml; for inhibition at 80 µg/mL: 80 ug/ml; for inhibition at 90 µg/mL: 90 ug/ml; for inhibition at 100 µg/mL: 100 ug/ml
[2] = test system: influenza virus A2 /Aichi/2/68; type: in vivo, mice (Charles River, random bred white, female); settings: for Mean Survival Time / Survival % / Survival N (surviving animals / total infected) / Mean Survival Time Increase: 75 mg/kg/day IP, 16 days; for Mean Survival Time Increase: vs virus only
Influenza A2 /MTL/68 = test: In vitro anti-myxovirus assay, inhibition of hemadsorption, Influenza A2/MTL/68 in G-2 cells; type: cell-based, Influenza A2 /Montreal/68; settings: 316 TCID50

Q: Which MNTC (in vitro; Cytotoxicity CTD0, maximal non-toxic concentration) does the source give for NC12CC3CC(CC(C3)C1)C2 [AMANTADINE HYDROCHLORIDE, reference compound] here?
A: 100 µg/mL

Q: What about the CC50 (in vitro; Cytotoxicity CTD50) of the same compound?
A: > 100 µg/mL

Q: What about the inhibition at 30 µg/mL ([1]; 178 TCID50, 30 ug/ml) of the same compound?
A: 0%

Q: And the inhibition at 40 µg/mL ([1]; 178 TCID50, 40 ug/ml)?
A: 17%

Q: And the inhibition at 50 µg/mL ([1]; 178 TCID50, 50 ug/ml)?
A: 80%

Q: What about the inhibition at 60 µg/mL ([1]; 178 TCID50, 60 ug/ml) of the same compound?
A: 90%

Q: What about the inhibition at 70 µg/mL ([1]; 178 TCID50, 70 ug/ml) of the same compound?
A: 93%

Q: What about the inhibition at 80 µg/mL ([1]; 178 TCID50, 80 ug/ml) of the same compound?
A: 100%

Q: And the inhibition at 90 µg/mL ([1]; 178 TCID50, 90 ug/ml)?
A: 100%

Q: What about the inhibition at 100 µg/mL ([1]; 178 TCID50, 100 ug/ml) of the same compound?
A: 100%

Q: What about the inhibition at 30 µg/mL ([1]; 316 TCID50, 30 ug/ml) of the same compound?
A: 0%

Q: What about the inhibition at 40 µg/mL ([1]; 316 TCID50, 40 ug/ml) of the same compound?
A: 10%

Q: And the inhibition at 50 µg/mL ([1]; 316 TCID50, 50 ug/ml)?
A: 67%

Q: And the inhibition at 70 µg/mL ([1]; 316 TCID50, 70 ug/ml)?
A: 97%

Q: And the inhibition at 80 µg/mL ([1]; 316 TCID50, 80 ug/ml)?
A: 100%

Q: And the inhibition at 90 µg/mL ([1]; 316 TCID50, 90 ug/ml)?
A: 100%

Q: And the inhibition at 100 µg/mL ([1]; 316 TCID50, 100 ug/ml)?
A: 100%

Q: What about the inhibition at 50 µg/mL (Influenza A2 /Aichi/2/68; 52 TCID50) of the same compound?
A: 0%

Q: What about the inhibition at 60 µg/mL (Influenza A2 /Aichi/2/68; 52 TCID50) of the same compound?
A: 53%

Q: What about the inhibition at 70 µg/mL (Influenza A2 /Aichi/2/68; 52 TCID50) of the same compound?
A: 83%

Q: What about the inhibition at 80 µg/mL (Influenza A2 /Aichi/2/68; 52 TCID50) of the same compound?
A: 70%

Q: And the inhibition at 90 µg/mL (Influenza A2 /Aichi/2/68; 52 TCID50)?
A: 97%

Q: What about the inhibition at 100 µg/mL (Influenza A2 /Aichi/2/68; 52 TCID50) of the same compound?
A: 87%

Q: And the inhibition at 50 µg/mL (Influenza A2 /Aichi/2/68; 100 TCID50)?
A: 0%

Q: What about the inhibition at 60 µg/mL (Influenza A2 /Aichi/2/68; 100 TCID50) of the same compound?
A: 0%

Q: And the inhibition at 70 µg/mL (Influenza A2 /Aichi/2/68; 100 TCID50)?
A: 33%

Q: And the inhibition at 80 µg/mL (Influenza A2 /Aichi/2/68; 100 TCID50)?
A: 27%

Q: And the inhibition at 90 µg/mL (Influenza A2 /Aichi/2/68; 100 TCID50)?
A: 67%

Q: What about the inhibition at 100 µg/mL (Influenza A2 /Aichi/2/68; 100 TCID50) of the same compound?
A: 43%

Q: And the “Mean Survival Time” value ([2]; Exp. 1, virus dose 4.1 LD50)?
A: 14.1 days

Q: What about the Survival % ([2]; Exp. 1, virus dose 4.1 LD50) of the same compound?
A: 55%

Q: And the “Survival N (surviving animals / total infected)” value ([2]; Exp. 1, virus dose 4.1 LD50)?
A: 11/20

Q: And the “Mean Survival Time Increase” value ([2]; Exp. 1, virus dose 4.1 LD50)?
A: +1.9 Days

Q: And the “Mean Survival Time” value ([2]; Exp. 2, virus dose 2.0 LD50)?
A: 15.3 days

Q: What about the Survival % ([2]; Exp. 2, virus dose 2.0 LD50) of the same compound?
A: 80%

Q: And the “Survival N (surviving animals / total infected)” value ([2]; Exp. 2, virus dose 2.0 LD50)?
A: 16/20

Q: And the “Mean Survival Time Increase” value ([2]; Exp. 2, virus dose 2.0 LD50)?
A: +2.9 Days

Q: And the “Mean Survival Time” value ([2]; Exp. 3, virus dose 2.6 LD50)?
A: 15.1 days

Q: What about the Survival % ([2]; Exp. 3, virus dose 2.6 LD50) of the same compound?
A: 80%

Q: What about the “Survival N (surviving animals / total infected)” value ([2]; Exp. 3, virus dose 2.6 LD50) of the same compound?
A: 16/20

Q: And the “Mean Survival Time Increase” value ([2]; Exp. 3, virus dose 2.6 LD50)?
A: +4.0 Days

Q: And the “Mean Survival Time” value ([2]; Exp. 4, virus dose 3.0 LD50)?
A: 15.0 days

Q: And the Survival % ([2]; Exp. 4, virus dose 3.0 LD50)?
A: 79%

Q: And the “Survival N (surviving animals / total infected)” value ([2]; Exp. 4, virus dose 3.0 LD50)?
A: 15/19

Q: What about the “Mean Survival Time Increase” value ([2]; Exp. 4, virus dose 3.0 LD50) of the same compound?
A: +3.7 Days

Q: And the “antiviral effect against influenza virus infection” value ([2]; administered intraperitoneally, […])?
A: significant antiviral effect

Q: And the inhibition at 50 µg/mL (Influenza A2 /MTL/68; 50 ug/ml)?
A: 0%

Q: What about the inhibition at 60 µg/mL (Influenza A2 /MTL/68; 60 ug/ml) of the same compound?
A: 0%

Q: And the inhibition at 70 µg/mL (Influenza A2 /MTL/68; 70 ug/ml)?
A: 16%

Q: And the inhibition at 80 µg/mL (Influenza A2 /MTL/68; 80 ug/ml)?
A: 42%

Q: What about the inhibition at 90 µg/mL (Influenza A2 /MTL/68; 90 ug/ml) of the same compound?
A: 46%

Q: What about the inhibition at 100 µg/mL (Influenza A2 /MTL/68; 100 ug/ml) of the same compound?
A: 54%
